Target: hERG channel (Homo sapiens, UniProt Q12809)
Assay: Inhibition of the hERG channel
Type: biochemical
Details: for IC50: studies conducted by Wuxi AppTec

hERG channel, sequence (Q12809 whole entry): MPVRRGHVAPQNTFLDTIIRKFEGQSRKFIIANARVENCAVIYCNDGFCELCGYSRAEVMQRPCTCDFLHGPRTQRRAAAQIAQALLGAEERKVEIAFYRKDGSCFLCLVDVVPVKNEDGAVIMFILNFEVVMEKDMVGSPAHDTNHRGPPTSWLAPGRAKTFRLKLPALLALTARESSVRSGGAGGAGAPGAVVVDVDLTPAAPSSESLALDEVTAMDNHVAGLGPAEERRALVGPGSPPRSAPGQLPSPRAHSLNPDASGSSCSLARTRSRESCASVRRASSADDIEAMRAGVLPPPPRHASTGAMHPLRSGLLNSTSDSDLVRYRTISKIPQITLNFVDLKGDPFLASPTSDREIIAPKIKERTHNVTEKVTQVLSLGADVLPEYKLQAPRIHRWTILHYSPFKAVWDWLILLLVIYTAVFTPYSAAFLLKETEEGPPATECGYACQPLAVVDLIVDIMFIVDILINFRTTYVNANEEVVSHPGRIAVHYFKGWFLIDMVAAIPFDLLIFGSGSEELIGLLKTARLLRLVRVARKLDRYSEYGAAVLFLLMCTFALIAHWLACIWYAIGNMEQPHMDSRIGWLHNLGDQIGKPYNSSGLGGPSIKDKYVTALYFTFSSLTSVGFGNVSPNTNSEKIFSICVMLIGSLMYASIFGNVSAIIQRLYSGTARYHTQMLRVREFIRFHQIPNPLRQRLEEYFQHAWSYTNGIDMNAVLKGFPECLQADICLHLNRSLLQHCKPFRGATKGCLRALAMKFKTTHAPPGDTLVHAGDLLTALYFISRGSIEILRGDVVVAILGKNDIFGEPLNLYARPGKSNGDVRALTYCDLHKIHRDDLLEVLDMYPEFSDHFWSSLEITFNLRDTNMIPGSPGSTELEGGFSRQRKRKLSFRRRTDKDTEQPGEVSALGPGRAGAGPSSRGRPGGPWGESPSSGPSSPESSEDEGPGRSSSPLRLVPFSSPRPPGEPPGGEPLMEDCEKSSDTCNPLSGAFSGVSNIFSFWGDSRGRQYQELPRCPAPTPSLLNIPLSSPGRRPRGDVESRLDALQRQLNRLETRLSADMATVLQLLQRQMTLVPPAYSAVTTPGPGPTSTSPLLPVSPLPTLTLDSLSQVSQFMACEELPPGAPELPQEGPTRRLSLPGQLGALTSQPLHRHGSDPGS

SMILES | IC50 [nM] | improvement in hERG IC50 relative to 1 (versus compound 1) [fold]
COc1nc2ccc(Br)cc2cc1[C@@H](c1cc(C)c(C)s1)[C@@](O)(CCN(C)C)c1cccc(F)c1 [Compound 9] | 880 | –
COc1cc([C@H](c2cc3cc(Br)ccc3nc2OC)[C@@](O)(CCN(C)C)c2cccc(F)c2)cnc1OC [Compound 43] | 1900 | 5
COc1nc2ccc(Br)cc2cc1[C@@H](c1ccnc(OC)c1OC)[C@@](O)(CCN(C)C)c1cccc(C)c1 [Compound 45] | 530 | –
